Data reported in US8586620B2, “Substituted indole compounds having NOS inhibitory activity” (NeurAxon, Inc., priority 2005, dated 2013).
“Also recorded” adds a separate entry of the source.

Key:
Hippocampal slices = assay: Mitochondrial metabolic activity in hippocampal slices after OGD, TTC staining; assay type: cell-based, rat; settings: 100 μM; 10 min OGD; control live normalized to 100%; n=5
Procedure: Brain injury can be measured in brain sections by incubating sections of fresh brain in 2,3,5-triphenyltetrazolium chloride (TTC). TTC, which is colorless, is reduced by mitochondrial succinate dehydrogenase in living tissue to a red formazan product. Combinations of photography or scanning and image analysis are then used to measure the area of normal (red) and damaged (uncolored) tissue at the surface of each section face and estimate the extent of damage. The TTC staining technique has been further refined by members of the Experimental Stroke Group at IBS (Study Host: University of Ottawa, Canada) using a solvent to extract the colored formazan product from tissue sections and measured it spectrophotometrically, thus obtaining a simple, objective measure of damage (Preston and Webster, J. Neurosci. Meth. 94(2):187-92, 1999). […]
(b) Preservation of Mitochondrial Metabolic Activity by compound 12 using TTC staining: Hippocampal slices exposed to 10 min OGD (control dead) retained 25±5% (n=5 groups of 4-5 slices) of the absorbance of slices not subjected to an insult (control live—normalized to 100%), whereas slices preincubated in 0.3 mM calcium 30 min prior to and during OGD retained 107±27% (n=5) of their absorbance (control protection). […]

CA1 hippocampal slices = assay: Evoked field potentials in CA1 hippocampal slices after OGD; assay type: cell-based, rat; settings: slices after 10 min OGD; compound 12 50 μM, 7-NI 100 μM; FIG. 16
Procedure: Slice Preparation: Male Wistar rats, 180-200 gm, were anesthetized with halothane and decapitated. Their brains were removed and placed in artificial cerebral spinal fluid (ACSF) at 0.5° C. within 60 s of decapitation. […] Brains were hemisected and hippocampi were dissected out and sectioned into […] thick slices using a McIlwain Tissue chopper (Mickle Laboratory Engineering Co. Gomshall, GB). Sectioning was initiated approximately 1 mm from the rostral end of the hippocampus and approximately 12 slices were harvested from each hippocampus. Slices were distributed into groups in a rotational manner so that each group contained slices from all sectioned regions of the hippocampus. The hippocampal slices were placed on nylon mesh platforms in interface-type incubation chambers (6-8 slices per platform; 1 platform per chamber) for 90 min at 35° C. The ACSF in these chambers, and the atmosphere above it, was continuously gassed with 95% O2/5% CO2. […]
(a) Preservation of Evoked Field Potentials: The efficacy of synaptic transmission in these slices was evaluated using electrophysiological techniques. […] Evoked potentials (EP) were recorded in the CA1 from the stratum pyrimidale using glass micropipettes (2-5 megohms) filled with 150 mM NaCl. Population spike (PS) amplitude was measured from the peak downward deflection to the midway point between the 2 positive peaks. […]

[1] = test system: formalin-induced hind paw licking; assay: Formalin-induced paw licking in mice; assay type: in vivo; settings: intraperitoneally 30 minutes before formalin, Phase II (20 to 30 minute), FIG. 5
Procedure: Formalin Induced Hyperalgesia and Inflammation: In an experimental model of sustained inflammatory nociception associated with long term intracellular changes of nociceptive processing at the level of the spinal cord, mice or rats are subjected to a subplantar injection of formalin into a paw (Chapman et al., Brain Res. 697:258-261, 1995; Meller and Gebhart, Pain 52:127-136, 1993). Two distinct phases of spontaneous nociceptive behaviour exist: The first phase (Phase I) last about 5 minutes, followed by a second phase (Phase II), lasting approximately 40 minutes characterized by persistent shaking or licking of the injected paw (Fu et al., Neuroscience 101(4):1127-1135, 2000). Longer periods after injection of formalin results in the development of allodynia and hyperalgesia (1-4 weeks). […] Test compounds, including compound 12 and 7-NI, were dissolved in 1% DMSO/2% Tween 80/0.9% NaCl. Male or female ICR-derived mice weighing 23±2 g were housed in APEC® cages and maintained in a controlled temperature (22° C.-24° C.) and humidity (60%-80%) environment with 12 hr light-dark cycles for 1 week prior to use. Free access to standard lab chow and tap water was granted. […] The reduction of formalin-induced hind paw licking time was recorded during the following 20 to 30 minute period (Phase II).

O=[N+]([O-])c1cccc2cn[nH]c12 [Compound 7-NI, 7-nitroindazole]
absorbance retained (TTC staining) (Hippocampal slices): 81±18%
preservation of population spike (CA1 hippocampal slices): did not preserve population spike; also recorded: fiber volleys, but no PSs
formalin-induced hind paw licking [1]: reduction in the frequency of paw licking
